Measurements taken from PMC6273488, “Synthesis and Biological Evaluation of Benzochromenopyrimidinones as Cholinesterase Inhibitors and Potent Antioxidant, Non-Hepatotoxic Agents for Alzheimer’s Disease” (Molecules, 2016).
Like-named read-outs stand apart in the source and are kept apart here.

Assays:
[1] = target: T1, horse serum BuChE (eqBuChE) (Equus caballus, UniProt P81908); experiment: Inhibition of eqBuChE (Ellman's assay); format: biochemical; conditions: 10 µM compound
T1 construct: BuChE from horse serum (lyophilized powder, Sigma-Aldrich); purchased Sigma-Aldrich; host or cells: horse serum
Description: (§1) For the preliminary screening of the inhibitory potencies, Electrophorus electricus AChE (EeAChE) and horse serum BuChE (eqBuChE) were used following the Ellman’s assay.
(§2) Assessment of the inhibitory power of BCPOs was performed following the spectrophotometric method of Ellman using purified AChE from Electrophorus electricus (Type V-S, Sigma-Aldrich) or BuChE from horse serum (lyophilized powder, Sigma-Aldrich). Enzymes were first dissolved in 0.1 M phosphate buffer (pH 8.0) and then aliquoted in small vials for easy handling. Compounds stock solutions in DMSO (10 mM) were diluted when necessary with DMSO to prepare appropriate dilutions of each compound. The assay was performed in a final volume of 3 mL of a 0.1 M phosphate-buffered solution at pH 8.0, containing 5,5′-dithiobis-2-nitrobenzoic acid (DTNB, 2625 µL, 0.35 mM, final concentration), EeAChE (29 µL, 0.035 U/mL final concentration) or eqBuChE (60 µL, 0.05 U/mL final concentration) tested compound (3 µL, different concentrations) and 1% (w/v) Bovine Albumin Serum phosphate-buffered (pH 8.0) solution (BSA, 40 µL). The inhibition in comparison to control without compound was determined by pre-incubating this blend at room temperature with each compound at nine different concentrations for 10 min. Then, acetylthiocholine iodide (105 µL, 0.35 mM, final concentration) or butyrylthiocholine iodide (150 µL, 0.5 mM final concentration) was added and incubated for another 15 min at rt. […] Calculation of IC50 values was performed with GraphPad Prism 5. Each concentration was measured in triplicate. Data are expressed as mean ± SEM.

[2] = target: T2, Recombinant human Aβ1–42 peptide (Homo sapiens, UniProt P05067); experiment: Inhibition of Aβ1-42 aggregation (Thioflavin-T fluorometric assay); format: biochemical; conditions: for inhibition at 10 µM: 10 µM compound and 1.5 µM Aβ1-42, mean ± standard deviation of two independent experiments
T2 construct: Recombinant human 1,1,1,3,3,3-hexafluoro-2-propanol pretreated Aβ1–42 peptide; purchased Merck Millipore
Description: 2. Thioflavin-T (ThT) Fluorometric Assay
Recombinant human 1,1,1,3,3,3-hexafluoro-2-propanol pretreated Aβ1–42 peptide (Merck Millipore, Darmstadt, Germany) was dissolved in DMSO to give 75 µM stock solution. The stock solution was further diluted in HEPES buffered solu tion (150 mM HEPES, pH 7.4, 150 mM NaCl), to 7.5 µM. Aβ1–42 solution was then added to the test compounds in black-walled 96-well plate, and diluted with ThT solution (final concentration of ThT was 10 µM). Final mixture contained 1.5 µM Aβ1–42, 10 µM of test compounds, and 3% DMSO. ThT fluorescence was measured every 5 min (λex = 440 nm, λem = 490 nm), with the medium continuously shaking between measurements using a 96-well microplate reader (Synergy™ H4, BioTek Instruments, Inc., Winooski, VT, USA). The fluorescence intensities at the plateau reached after 24 h in the absence and presence of the test compound were averaged, and the average fluorescence of the corresponding wells at t = 15 min was subtracted. The Aβ1–42 aggregation inhibitory potency is expressed as the percentage inhibition (% inh = (1 − Fi/F0) × 100%), where Fi is the increase in fluorescence of Aβ1–42 treated with the test compound, and F0 is the increase in fluorescence of Aβ1–42 alone.
1. LeVine, H. Thioflavine T interaction with synthetic Alzheimer’s disease beta-amyloid peptides:
Detection of amyloid aggregation in solution. Protein Sci. Publ. Protein Soc. 1993, 2, 404–410.

[3] = in vitro; conditions: for Papp at 100 µM: PAMPA, pH 7.4; for BBB Penetration Estimation CNS (+/−): PAMPA-BBB class
Description: Penetration across the BBB is an essential property for compounds targeting the CNS. […] The filter membrane of the donor plate was coated with PBL (Polar Brain Lipid, Avanti, AL, USA) in dodecane (4 µL of 20 mg/mL PBL in dodecane) and the acceptor well was filled with 300 µL of PBS pH 7.4 buffer ([…]). Tested compounds were dissolved first in DMSO and that diluted with PBS pH 7.4 to reach the final concentration 100 µM in the donor well. […] 300 µL of the donor solution was added to the donor wells ([…]) and the donor filter plate was carefully put on the acceptor plate so that coated membrane was “in touch” with both donor solution and acceptor buffer. Test compound diffused from the donor well through the lipid membrane (Area = 0.28 cm^2) to the acceptor well. The concentration of the drug in both donor and the acceptor wells was assessed after 3, 4, 5 and 6 h of incubation in quadruplicate using the UV plate reader Synergy HT (Biotek, Winooski, VT, USA) at the maximum absorption wavelength of each compound.

[4] = target: T3, human recombinant AChE (hAChE) (Homo sapiens, UniProt P22303); experiment: biochemical
T3 construct: purchased Sigma-Aldrich
Description: Ellman’s assay was followed to evaluate the anticholinesterasic potency of BCPOs using human recombinant AChE (Sigma-Aldrich). 500 U of hAChE were dissolved in 1 mL of a gelatine solution (1% in water) and diluted with demineralized water to give a stock solution of 5 U/mL. […] All assays were performed in 0.1 M phosphate buffer pH 8.0. The assayed compounds or blank (water) (25 µL) were incubated with the enzyme (20 µL) for 5 min at 37 °C in 765 µL of phosphate buffer prior to start the reaction. Then, 20 µL of DTNB and 20 µL of ATC were added. […] IC50 values were determined with GraphPad Prism 5. Each concentration was measured in triplicate. Data are expressed as mean ± SEM.

[5] = target: T4, Electrophorus electricus AChE (EeAChE) (Electrophorus electricus, UniProt O42275); experiment: Inhibition of EeAChE (Ellman's assay); format: biochemical; conditions: mean ± SEM, at least three independent experiments
T4 construct: purified AChE from Electrophorus electricus (Type V-S, Sigma-Aldrich); purchased Sigma-Aldrich Type V-S
Description: as §1, §2

T1 sequence (P81908 whole entry): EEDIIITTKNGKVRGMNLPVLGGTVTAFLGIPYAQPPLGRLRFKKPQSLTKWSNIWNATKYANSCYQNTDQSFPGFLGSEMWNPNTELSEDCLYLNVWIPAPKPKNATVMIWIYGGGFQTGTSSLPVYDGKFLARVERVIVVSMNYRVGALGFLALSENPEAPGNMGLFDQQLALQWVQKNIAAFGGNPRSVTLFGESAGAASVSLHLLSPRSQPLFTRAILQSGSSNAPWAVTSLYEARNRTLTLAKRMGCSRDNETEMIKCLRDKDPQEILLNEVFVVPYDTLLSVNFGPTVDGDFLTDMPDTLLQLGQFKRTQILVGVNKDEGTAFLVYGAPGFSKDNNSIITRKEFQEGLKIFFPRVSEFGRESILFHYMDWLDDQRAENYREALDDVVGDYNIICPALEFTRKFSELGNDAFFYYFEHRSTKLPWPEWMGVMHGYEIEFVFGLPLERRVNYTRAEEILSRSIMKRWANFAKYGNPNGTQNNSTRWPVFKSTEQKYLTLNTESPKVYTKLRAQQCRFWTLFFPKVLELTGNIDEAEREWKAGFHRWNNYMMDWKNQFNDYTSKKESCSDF
T3 sequence (P22303 32-614): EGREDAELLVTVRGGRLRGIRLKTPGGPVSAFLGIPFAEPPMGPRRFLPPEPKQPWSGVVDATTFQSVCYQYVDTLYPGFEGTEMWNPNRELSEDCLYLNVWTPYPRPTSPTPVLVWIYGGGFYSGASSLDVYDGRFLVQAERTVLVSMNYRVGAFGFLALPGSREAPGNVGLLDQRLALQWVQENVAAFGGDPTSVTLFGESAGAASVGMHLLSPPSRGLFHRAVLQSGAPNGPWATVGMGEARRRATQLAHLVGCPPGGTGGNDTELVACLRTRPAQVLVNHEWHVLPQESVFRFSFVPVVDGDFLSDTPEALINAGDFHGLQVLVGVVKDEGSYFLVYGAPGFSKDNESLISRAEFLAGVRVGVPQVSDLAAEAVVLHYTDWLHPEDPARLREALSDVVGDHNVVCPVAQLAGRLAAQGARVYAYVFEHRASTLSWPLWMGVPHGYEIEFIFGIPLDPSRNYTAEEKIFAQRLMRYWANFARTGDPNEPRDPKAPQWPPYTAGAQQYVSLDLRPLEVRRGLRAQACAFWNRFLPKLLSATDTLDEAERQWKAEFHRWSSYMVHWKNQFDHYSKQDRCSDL
T2 sequence (P05067 672-713): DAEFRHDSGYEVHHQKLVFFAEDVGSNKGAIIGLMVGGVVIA
T4 sequence (O42275 24-633): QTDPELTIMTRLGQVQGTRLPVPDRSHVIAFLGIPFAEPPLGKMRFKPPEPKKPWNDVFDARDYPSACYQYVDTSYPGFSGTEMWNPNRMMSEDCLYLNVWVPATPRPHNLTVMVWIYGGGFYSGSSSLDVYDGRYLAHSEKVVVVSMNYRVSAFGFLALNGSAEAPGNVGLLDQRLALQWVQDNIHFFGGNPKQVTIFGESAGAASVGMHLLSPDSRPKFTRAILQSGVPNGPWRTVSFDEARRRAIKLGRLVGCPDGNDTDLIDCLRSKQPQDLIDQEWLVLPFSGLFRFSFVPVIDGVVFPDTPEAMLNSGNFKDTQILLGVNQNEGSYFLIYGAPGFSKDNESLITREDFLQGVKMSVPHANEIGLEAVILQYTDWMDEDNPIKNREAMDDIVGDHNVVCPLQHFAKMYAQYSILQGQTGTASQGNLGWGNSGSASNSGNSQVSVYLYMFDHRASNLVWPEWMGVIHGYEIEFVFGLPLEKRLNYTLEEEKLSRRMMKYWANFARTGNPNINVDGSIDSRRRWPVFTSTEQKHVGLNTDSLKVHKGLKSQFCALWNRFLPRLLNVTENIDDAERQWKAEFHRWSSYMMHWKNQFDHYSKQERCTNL

SMILES | inhibition at 10 µM [1] [%] | Aβ1–42 aggregation inhibition (in words) ([2]; 10 µM compound) | inhibition at 10 µM [2] [%] | Papp at 100 µM [3] [×10⁻⁶ cm/s] | BBB Penetration Estimation CNS (+/−) [3] | IC50 ([4]; mean ± SEM) [nM] | IC50 [5] [nM] | IC50 [4] [nM]
O=c1c2c(nc3n1CCCC3)Oc1ccc3ccccc3c1C2c1ccccc1 (stereo not drawn) [3Ab, 15-Phenyl-10,11,12,15-tetrahydro-9H-benzo[5,6]chromeno[2,3-d]pyrido[1,2-a]pyrimidin-14-one] | 31.2 ± 1.8 | weak inhibition power | 13.6 ± 2.1 | 7.2 ± 0.6 | CNS (+) (‘CNS (+)’ (high BBB permeability predicted); Pe (10^−6 cm·s^−1) > 4.0) | 3660 ± 59 | 55.5 ± 7.1 | 
COc1cccc(C2c3c(nc4n(c3=O)CCC4)Oc3ccc4ccccc4c32)c1 (stereo not drawn) [3Ba, 14-(3′Methoxyphenyl)-10,11-dihydro-14H-benzo[5,6]chromeno[2,3-d]pyrrolo[1,2-a]pyrimidin-13(9H)-one] | 51 ± 4 |  | < 10 | 4.6 ± 0.77 | CNS (+) (‘CNS (+)’ (high BBB permeability predicted); Pe (10^−6 cm·s^−1) > 4.0) | 1530 ± 25 | 60.7 ± 4.5 | 
COc1cccc(C2c3c(nc4n(c3=O)CCCC4)Oc3ccc4ccccc4c32)c1 (stereo not drawn) [3Bb, 15-(3′-Methoxyphenyl)-10,11,12,15-tetrahydro-9H-benzo[5,6]chromeno[2,3-d]pyrido[1,2-a]pyrimidin-14-one] | 43 ± 1.9 |  | < 10 | 3.6 ± 0.57 | CNS (+/−) (‘CNS (+/−) (BBB permeability uncertain); Pe (10^−6 cm·s^−1) from 4.0 to 2.0) | 1280 ± 32 | 30.5 ± 2.8 | 1280 ± 30
Cc1ccc(C2c3c(nc4n(c3=O)CCCC4)Oc3ccc4ccccc4c32)cc1 (stereo not drawn) [3Cb, 15-(4′-Methylphenyl)-10,11,12,15-tetrahydro-9H-benzo[5,6]chromeno[2,3-d]pyrido[1,2-a]pyrimidin-14-one] | 19 ± 2 |  | < 10 |  |  | 1590 ± 24 | 55.9 ± 12.7 | 
